Results from article PMC3242434 (Bioorganic & medicinal chemistry letters, 2011).

Experiments:
[1] = test system: MCF7 breast cancer cell-line; test: Anti-proliferative activity against MCF7 breast cancer cell-line; type: cell-based; conditions: Homo sapiens, MCF7, read-out: IC50 against MCF-7
[2] = test system: Hsp90; test: Western blot analyses of Hsp90 client protein degradation in MCF-7 cells; type: cell-based

| IC50 [1] [µM] | SMILES | Hsp90 client protein degradation [2] | Hsp90 induction (heat shock response) [2] |
| --- | --- | --- | --- |
| ~13 | COc1ccc(Cc2ccc3cc(NC(=O)c4ccc(O)c(CC=C(C)C)c4)c(=O)oc3c2C)cc1OC [Compound 48] |  |  |
|  | COc1ccc(Oc2ccc3cc(NC(=O)c4ccc(O)c(CC=C(C)C)c4)c(=O)oc3c2C)cc1 [Compound 14] | client protein degradation was observed | no Hsp90 induction was seen |
|  | COc1ccc(Cc2ccc3cc(NC(=O)c4ccc(OC(C)=O)c(CC=C(C)C)c4)c(=O)oc3c2C)cc1 [Compound 43] | client protein degradation was observed | no Hsp90 induction was seen |
